Where no end group is shown, it is not given here.

Results on 10 molecules are retold here after patent US7803765B2, “Methods of constructing biodiverse gene fragment libraries and biological modulators isolated therefrom” (Phylogica Limited, priority 2004, dated 2010).

For experiment [1], the system named is Der p 1. The experiment can be described thus: immunization of mice with 2C7pan phage clones, serum tested by DELFIA and competitive DELFIA. Format: in vivo. The following applies: for anti-Der p 1 immune response in immunized mice: 10^11 phage particles in Freunds complete adjuvant, bled after first booster, DELFIA; for inhibition of immune serum binding to Der p 1 by recombinant Der p 1: competitive DELFIA, BSA as negative control. Here is the method:
The clones, 2C7pan clones 9, 26 and 42, described in Example 8 were then used to immunize mice. Phage were purified by CsCl gradient centrifugation and then used to immunize mice. Each injection consisted of 10^11 phage particles suspended in Freunds complete adjuvant. After the first booster mice were bled and tested by DELFIA for binding to Der p 1. Furthermore, the specificity of the immune response for Der p 1 was tested using competitive DELFIA.

The subject of experiment [2] is anti-Der p 1 monoclonal antibody 2C7. Description: T7-DELFIA binding of phage-displayed peptides to panning antibody 2C7. Particulars: 50 μl lysate in the standard T7-DELFIA; 500 ng/well 2C7.
Description: The monoclonal antibody (approximately 10 μg) was adsorbed to a Petri dish and the amplified phage display library brought into contact with the adsorbed antibody.
The eluate after round three was amplified and ninety-nine individual T7 clones were tested for binding to the panning antibody 2C7 using a dissociation-enhanced ianthinide fluoroimmunoassay (DELFIA) with 500 ng/well 2C7. Assays were performed essentially according to manufacturer's instructions (Perkin Elmer Life Sciences). The first ligand used in the DELFIA was T7lysate (ie the library) (1:2 in assay buffer); second ligand: SIGMA biotinylated anti-T7 monoclonal antibody 1:10,000 (mouse), Strep-Eur+enhancement solution).
Experiment [3] has as its system monoclonal antibody 2C7. Description: competition DELFIA of 2C7pan clones binding to 2C7. Particulars: for inhibition of clone binding to 2C7 by recombinant Der p 1: competitor recombinant Der p 1. From the text: Competition DELIFAs were then used to study the interaction between the monoclonal antibody and the peptides identified, using recombinant Der p 1 or the epitope of the 2C7 antibody (GST-P1fragment 98-140 […]) as a competitor.

For experiment [4], the target named is T1, Id1/E47 interaction (Homo sapiens, UniProt P15923+P41134).
T1 construct: expressed in transfected cells; host or cells: Saccharomyces cerevisiae strain PRT480
T1 sequence (P41134 1-155): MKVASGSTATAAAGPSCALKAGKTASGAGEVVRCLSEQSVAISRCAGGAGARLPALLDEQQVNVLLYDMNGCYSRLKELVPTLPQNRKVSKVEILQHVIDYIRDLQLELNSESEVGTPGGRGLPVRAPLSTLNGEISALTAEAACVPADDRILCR
T1 sequence (P15923 1-651 isoform P15923-2): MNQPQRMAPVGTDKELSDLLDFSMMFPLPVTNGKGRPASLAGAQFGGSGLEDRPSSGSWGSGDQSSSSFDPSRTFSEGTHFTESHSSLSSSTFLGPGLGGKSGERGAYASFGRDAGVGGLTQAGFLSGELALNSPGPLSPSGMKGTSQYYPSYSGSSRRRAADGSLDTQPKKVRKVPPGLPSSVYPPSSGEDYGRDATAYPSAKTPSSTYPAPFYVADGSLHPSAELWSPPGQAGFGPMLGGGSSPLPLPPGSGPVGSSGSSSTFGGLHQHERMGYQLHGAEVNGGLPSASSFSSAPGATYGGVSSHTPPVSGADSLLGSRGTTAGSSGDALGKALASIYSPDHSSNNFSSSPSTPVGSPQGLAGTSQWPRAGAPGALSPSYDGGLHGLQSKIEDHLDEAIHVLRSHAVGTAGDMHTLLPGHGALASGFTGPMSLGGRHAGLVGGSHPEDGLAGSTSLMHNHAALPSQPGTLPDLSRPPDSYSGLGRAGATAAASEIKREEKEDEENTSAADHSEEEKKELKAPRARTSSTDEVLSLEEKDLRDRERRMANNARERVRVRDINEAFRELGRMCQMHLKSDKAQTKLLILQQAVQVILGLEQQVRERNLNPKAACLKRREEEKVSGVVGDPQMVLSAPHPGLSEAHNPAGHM
Description: specificity of blocking: two-hybrid in strain PRT480 expressing ID and E47. The following applies: yeast strain PRT480, specificity control. In kind it is cell-based.
Description: (§1) Subsequently, the specificity of blocking was assayed, by mating those strains that did recapitulate the blocked phenotype into a strain PRT480 expressing two interacting proteins selected from the group consisting of: (i) E2,2 2F and SCL; and (ii) ID and E47.

Experiment [5] concerns SCL/E47 interaction. The experiment can be described thus: reverse two-hybrid screen for antagonists of the SCL/E47 interaction in yeast. In kind it is cell-based. Particulars: re-screened clones. From the text:
The nucleic acid encoding the E47 protein was cloned into the bait vector pDD (SEQ NO: 61; FIG. 6) in operable connection with the LexA DNA binding domain. The pDD vector also contains a nucleic acid encoding the HIS3 gene (FIG. 6).
These vectors were transformed into the PRT 480 yeast strain (which contains two LexA-CYH2 chimeric reporter genes and two LexA-URA3 counter selectable reporter genes).
The process of screening the library is represented schematically in FIG. 7. […] Approximately 300,000 diploids were plated onto 30 cm plates containing complete synthetic media lacking histidine and tryptophan (ie., HW media), and supplemented with 0.06% (w/v) galactose/0.04% 5-FOA and glucose.
The FOA-resistant colonies were replica-plated from the master-plate onto plates containing HWU media, or media lacking histidine, tryptophan and leucine (ie. HWL media). The replica-plate media also contained various concentrations of galactose.
Library plasmids were re-transformed into strain PRT51, and the resultant yeast cells were again mated with strain PRT 480 SCL/E47 haploids. Diploids were re-screened for their ability to block the SCL/E47 interaction, by plating in the forward direction on plates containing HWU or HWL media supplemented with various concentrations of galactose.

In experiment [6] the target is T2, SCL/E2.22F interaction (Homo sapiens, UniProt P15884+P17542).
T2 construct: expressed in transfected cells; host or cells: Saccharomyces cerevisiae strain PRT480
The experiment can be described thus: specificity of blocking: two-hybrid in strain PRT480 expressing E2.22F and SCL. In kind it is cell-based. The following applies: yeast strain PRT480, specificity control.
Description: as §1

T2 sequence (P17542 whole entry): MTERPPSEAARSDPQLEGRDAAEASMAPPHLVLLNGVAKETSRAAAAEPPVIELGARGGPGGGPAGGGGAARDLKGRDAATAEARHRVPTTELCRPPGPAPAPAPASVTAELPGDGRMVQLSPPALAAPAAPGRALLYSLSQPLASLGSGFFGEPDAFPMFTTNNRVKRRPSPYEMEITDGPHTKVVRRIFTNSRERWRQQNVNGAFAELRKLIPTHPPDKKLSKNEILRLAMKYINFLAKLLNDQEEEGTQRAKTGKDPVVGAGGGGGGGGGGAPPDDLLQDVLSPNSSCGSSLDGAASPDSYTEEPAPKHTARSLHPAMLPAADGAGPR
T2 sequence (P15884 whole entry): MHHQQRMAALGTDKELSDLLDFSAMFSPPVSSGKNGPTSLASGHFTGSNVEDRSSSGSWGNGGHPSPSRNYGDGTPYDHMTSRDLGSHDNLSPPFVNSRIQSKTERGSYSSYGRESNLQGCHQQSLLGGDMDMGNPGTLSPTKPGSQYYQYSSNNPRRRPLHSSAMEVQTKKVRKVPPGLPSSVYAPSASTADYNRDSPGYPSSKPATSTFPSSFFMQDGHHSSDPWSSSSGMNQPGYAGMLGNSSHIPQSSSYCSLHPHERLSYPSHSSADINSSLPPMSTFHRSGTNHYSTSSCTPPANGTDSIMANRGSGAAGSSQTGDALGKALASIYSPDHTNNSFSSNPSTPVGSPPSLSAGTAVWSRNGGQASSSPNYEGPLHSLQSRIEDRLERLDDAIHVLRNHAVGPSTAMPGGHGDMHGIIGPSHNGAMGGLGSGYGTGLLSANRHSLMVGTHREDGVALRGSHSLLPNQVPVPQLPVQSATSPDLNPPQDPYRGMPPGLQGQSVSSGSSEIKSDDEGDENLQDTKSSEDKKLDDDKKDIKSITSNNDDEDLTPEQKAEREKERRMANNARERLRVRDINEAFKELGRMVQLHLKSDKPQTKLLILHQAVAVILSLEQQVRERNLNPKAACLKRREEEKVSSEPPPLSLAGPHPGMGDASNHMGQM

Turning to “GDPN S A S G T A (GDPNSASGTA; numbers in words are those of the source; also: displayed on T7 phage) [Clone 2c7pan9]”, in experiment [1], the “anti-Der p 1 immune response in immunized mice” value (shortened to “anti-Der p 1 immune response”) is listed as “an anti-Der p 1 immune response was induced” and the “inhibition of immune serum binding to Der p 1 by recombinant Der p 1” value (from here on “inhibition … to Der p 1 by recombinant Der p 1”) is reported as “inhibited by the addition of recombinant Der p 1”. The “TRF (time resolved fluorometry) binding to 2C7” value (shortened to “TRF”) in experiment [2] came to 17000 TRF. The “inhibition of clone binding to 2C7 by recombinant Der p 1” value in experiment [3] was “specifically inhibited”.
Turning to “BGF 06: SCL/E47 peptide blocker; fusion peptide SEQ ID NO: 67, fragment-encoded SEQ ID NO: 69; A. aeolicus fragment (MGKPIPNPLLGLDSTQAMGAPPKKKRKVAEFRSDYKDDDDKAYHIIAVCFLIKVS)”, the “Target interaction Id1/E47 blocked” value in experiment [4] is “−”. Besides, the “Target interaction SCL/E47 blocked” value in experiment [5] was “+”. Besides, the “Target interaction SCL/E2.22F blocked” value in experiment [6] is listed as “−”.
With “BGF 05: non-specific blocker clone; fusion peptide SEQ ID NO: 63, fragment-encoded SEQ ID NO: 65; H. influenzae fragment (MGKPIPNPLLGLDSTQAMGAPPKKKRKVAEFARTTTTRLINQSVVRKIWLYRDAR)”, the “Target interaction Id1/E47 blocked” value in experiment [4] was “+”. Moreover, the “Target interaction SCL/E47 blocked” value in experiment [5] is “+”. Further, the “Target interaction SCL/E2.22F blocked” value in experiment [6] was “+”.
As to “BGF 24: SCL/E47 peptide blocker; fusion peptide SEQ ID NO: 75, fragment-encoded SEQ ID NO: 77; T. maritima fragment (MGKPIPNPLLGLDSTQAMGAPPKKKRKVAEFRSDYKDDDDKLIKHHWVLSIITTASR)”, the “Target interaction Id1/E47 blocked” value in experiment [4] is given as “−”. For the same molecule, in experiment [5], the “Target interaction SCL/E47 blocked” value is recorded as “+”. Also, in experiment [6], the “Target interaction SCL/E2.22F blocked” value was “−”.
Take “GDP R T H R (GDPRTHR; numbers in words are those of the source; also: displayed on T7 phage) [Clone 2c7pan26]”: in experiment [1], the “anti-Der p 1 immune response” value is “an anti-Der p 1 immune response was induced” and the “inhibition … to Der p 1 by recombinant Der p 1” value is listed as “inhibited by the addition of recombinant Der p 1”. For the same molecule, the “TRF” value in experiment [2] is listed as 8500 TRF. Besides, the “inhibition of clone binding to 2C7 by recombinant Der p 1” value in experiment [3] is listed as “specifically inhibited”.
Turning to “GDPN S S T S P R (GDPNSSTSPR; numbers in words are those of the source; also: displayed on T7 phage) [Clone 2c7pan8]”, the “TRF” value in experiment [2] is on record as 1900 TRF. Also, in experiment [3], the “inhibition of clone binding to 2C7 by recombinant Der p 1” value is “specifically inhibited”.
As to “GDPN S R G K S R E Y L S (GDPNSRGKSREYLS; numbers in words are those of the source; also: displayed on T7 phage) [Clone 2c7pan14]”, the “TRF” value in experiment [2] is 1800 TRF. In experiment [3], the “inhibition of clone binding to 2C7 by recombinant Der p 1” value is recorded as “specifically inhibited”.
In the case of “GDPN S S S V D K L G Y W R V T E S S N E (GDPNSSSVDKLGYWRVTESSNE; numbers in words are those of the source; also: displayed on T7 phage) [Clone 2c7pan42]”, in experiment [1], the “anti-Der p 1 immune response” value is given as “an anti-Der p 1 immune response was induced” and the “inhibition … to Der p 1 by recombinant Der p 1” value is reported as “inhibited by the addition of recombinant Der p 1”. The “TRF” value in experiment [2] is recorded as 64000 TRF. Moreover, the “inhibition of clone binding to 2C7 by GST-P1fragment 98-140” value in experiment [3] (competitor GST-P1fragment 98-140 (2C7 epitope)) was “higher levels of inhibition”. Besides, in experiment [3], the “inhibition of clone binding to 2C7 by recombinant Der p 1” value is “only partially inhibited”.
For “BGF 13: SCL/E47 peptide blocker; fusion peptide SEQ ID NO: 71, fragment-encoded SEQ ID NO: 73; H. influenzae fragment (MGKPIPNPLLGLDSTQAMGAPPKKKRKVAEFGFCSNQMREM)”, in experiment [4], the “Target interaction Id1/E47 blocked” value is on record as “−”. The “Target interaction SCL/E47 blocked” value in experiment [5] is listed as “+”. In experiment [6], the “Target interaction SCL/E2.22F blocked” value is “−”.

B1: BGF 35: SCL/E47 peptide blocker; fusion peptide SEQ ID NO: 79, fragment-encoded SEQ ID NO: 81; H. influenzae fragment (peptide)
chain: MGKPIPNPLLGLDSTQAMGAPPKKKRKVAEFQGRRRQGLSINQWLEKYGYIEMQGNETFKLAVRELSNVVEETLLANNLDKKDLDWLVVVVLVV
Turning to B1, in experiment [4], the “Target interaction Id1/E47 blocked” value is on record as “−”. Moreover, the “Target interaction SCL/E47 blocked” value in experiment [5] is “+”. Also, in experiment [6], the “Target interaction SCL/E2.22F blocked” value is given as “−”.
